Data: paper PMC6272684, “Synthesis, Antiproliferative and Antifungal Activities of 1,2,3-Triazole-Substituted Carnosic Acid and Carnosol Derivatives” (Molecules, 2015)

How the values were obtained:
[1] = system: C. neoformans ATCC 32264; assay: Antifungal broth microdilution (CLSI M27-A3), growth inhibition; format: cell-based, Cryptococcus neoformans; conditions: for MIC50 (minimum concentration to inhibit 50% of fungal growth), C. neoformans: C. neoformans ATCC 32264
Description: (§1) The antifungal properties of compounds 1–24 against two clinical important fungal species, C. albicans ATCC 10231 and C. neoformans ATCC 32264 were investigated. Results were expressed as the percentages of inhibition of each fungus in the range 250–3.9 μg∙mL^−1 by using the standardized microbroth dilution method M-27A3 of Clinical and Laboratory Standards Institute which assures reliable and reproducible results.
(§2) For the antifungal evaluation, standardized strains from the American Type Culture Collection (ATCC), Rockville, MD, USA, were used. The microorganisms included yeasts (Candida albicans ATCC 10231 and Cryptococcus neoformans ATCC 32264). Strains were grown on Sabouraud-chloramphenicol agar slants for 48 h at 30 °C, maintained on slopes of Sabouraud-dextrose agar (SDA, Oxoid), and subcultured every 15 days to prevent pleomorphic transformations. Inocula of cell or spore suspensions were obtained according to reported procedures and adjusted to 1–5 × 10^3 cells/spores with colony forming units (CFU)/mL [29].
(§3) Broth microdilution techniques were performed in 96-well microplates according to the Clinical and Laboratory Standards Institute Reference Method for Broth Dilution Antifungal Susceptibility Testing of Yeasts, Approved Standard M27-A3 [29]. For the assay, compound test wells (CTWs) were prepared with stock solutions of each compound in DMSO (maximum concentration ≤1%), diluted with RPMI-1640, to final concentrations of 250–3.9 μg∙mL^−1. An inoculum suspension (100 μL) was added to each well (final volume in the well = 200 μL). A growth control well (GCW) (containing medium, inoculum, and the same amount of DMSO used in a CTW, but compound-free) and a sterility control well (SCW) (sample, medium, and sterile water instead of inoculum) were included for each fungus tested. Microtiter trays were incubated in a moist, dark chamber at 30 °C for 48 h for both yeasts. Microplates were read in a VERSA Max microplate reader (Molecular Devices, Sunnyvale, CA, USA). Amphotericin B (Sigma-Aldrich) was used as positive control. Tests were performed in triplicate. Reduction of growth for each compound concentration was calculated as follows: % of inhibition = 100 − (OD 405 CTW − OD 405 SCW)/(OD 405 GCW − OD 405 SCW). The means ± SEM were the results of triplicate tests. Three endpoints were defined from the assay explained above and the dose-response curves. Minimum Inhibitory concentration (MIC) resulting in total fungal growth inhibition was named MIC100 while MIC50 was defined as the minimum concentration that inhibits 50% of the fungal growth.

[2] = system: C. albicans ATCC 10231; assay: as above; format: cell-based, Candida albicans; conditions: for MIC50 (minimum concentration to inhibit 50% of fungal growth), C. albicans: C. albicans ATCC 10231
Description: as §1, §2, §3

CC(C)c1cc2c(c(OC(=O)CCCc3cn(CSc4ccccc4)nn3)c1OC(=O)CCCc1cn(CSc3ccccc3)nn1)C13CCCC(C)(C)C1CC2OC3=O (stereo not drawn) [Compound 18, (7β)-11,12-O-(4-(((1-phenylthio)methyl)-1H-1,2,3-triazol-4-yl)-butanoyloxy)-7,20-epoxyabieta-8,11,13-trien-20-one]
Inhibition percentage against C. neoformans ATCC 32264 ([1]; 3.9 μg∙mL^−1, 48 h): 0.0%
Inhibition percentage against C. neoformans ATCC 32264 ([1]; 7.8 μg∙mL^−1, 48 h): 0.0%
Inhibition percentage against C. neoformans ATCC 32264 ([1]; 15.6 μg∙mL^−1, 48 h): 0.0%
Inhibition percentage against C. neoformans ATCC 32264 ([1]; 31.2 μg∙mL^−1, 48 h): 0.0%
Inhibition percentage against C. neoformans ATCC 32264 ([1]; 62.5 μg∙mL^−1, 48 h): 0.0%
Inhibition percentage against C. neoformans ATCC 32264 ([1]; 125 μg∙mL^−1, 48 h): 11.8 ± 0.6%
Inhibition percentage against C. neoformans ATCC 32264 ([1]; 250 μg∙mL^−1, 48 h): 44.3 ± 1.9%
MIC50 (minimum concentration to inhibit 50% of fungal growth), C. neoformans [1]: >250 µg/mL
Inhibition percentage against C. albicans ATCC 10231 ([2]; 3.9 μg∙mL^−1, 48 h): 1.0 ± 0.1%
Inhibition percentage against C. albicans ATCC 10231 ([2]; 7.8 μg∙mL^−1, 48 h): 2.5 ± 0.2%
Inhibition percentage against C. albicans ATCC 10231 ([2]; 15.6 μg∙mL^−1, 48 h): 2.8 ± 1.0%
Inhibition percentage against C. albicans ATCC 10231 ([2]; 62.5 μg∙mL^−1, 48 h): 18.3 ± 0.1%
Inhibition percentage against C. albicans ATCC 10231 ([2]; 125 μg∙mL^−1, 48 h): 35.4 ± 2.1%
Inhibition percentage against C. albicans ATCC 10231 ([2]; 250 μg∙mL^−1, 48 h): 57.9 ± 1.0%
Inhibition percentage against C. albicans ATCC 10231 ([2]; 31. μg∙mL^−1, 48 h): 11.5 ± 1.8%
MIC50 (minimum concentration to inhibit 50% of fungal growth), C. albicans [2]: 250 µg/mL

CC(C)c1cc2c(c(OC(=O)CCc3cn(Cc4ccccc4)nn3)c1OC(=O)CCc1cn(Cc3ccccc3)nn1)C13CCCC(C)(C)C1CC2OC3=O (stereo not drawn) [Compound 19, (7β)-11,12-O-(3-(1-benzyl-1H-1,2,3-triazol-4-yl)-propanoyloxy)-7,20-epoxyabieta-8,11,13-trien-20-one]
Inhibition percentage against C. neoformans ATCC 32264 ([1]; 3.9 μg∙mL^−1, 48 h): 0.0%
Inhibition percentage against C. neoformans ATCC 32264 ([1]; 7.8 μg∙mL^−1, 48 h): 0.0%
Inhibition percentage against C. neoformans ATCC 32264 ([1]; 15.6 μg∙mL^−1, 48 h): 0.0%
Inhibition percentage against C. neoformans ATCC 32264 ([1]; 31.2 μg∙mL^−1, 48 h): 0.0%
Inhibition percentage against C. neoformans ATCC 32264 ([1]; 62.5 μg∙mL^−1, 48 h): 3.3 ± 1.1%
Inhibition percentage against C. neoformans ATCC 32264 ([1]; 125 μg∙mL^−1, 48 h): 7.1 ± 2.0%
Inhibition percentage against C. neoformans ATCC 32264 ([1]; 250 μg∙mL^−1, 48 h): 31.3 ± 1.6%
MIC50 (minimum concentration to inhibit 50% of fungal growth), C. neoformans [1]: >250 µg/mL
Inhibition percentage against C. albicans ATCC 10231 ([2]; 3.9 μg∙mL^−1, 48 h): 0.7 ± 0.3%
Inhibition percentage against C. albicans ATCC 10231 ([2]; 7.8 μg∙mL^−1, 48 h): 3.2 ± 0.1%
Inhibition percentage against C. albicans ATCC 10231 ([2]; 15.6 μg∙mL^−1, 48 h): 3.2 ± 0.1%
Inhibition percentage against C. albicans ATCC 10231 ([2]; 62.5 μg∙mL^−1, 48 h): 11.9 ± 1.0%
Inhibition percentage against C. albicans ATCC 10231 ([2]; 125 μg∙mL^−1, 48 h): 21.1 ± 1.0%
Inhibition percentage against C. albicans ATCC 10231 ([2]; 250 μg∙mL^−1, 48 h): 37.8 ± 0.5%
Inhibition percentage against C. albicans ATCC 10231 ([2]; 31. μg∙mL^−1, 48 h): 4.6 ± 1.8%
MIC50 (minimum concentration to inhibit 50% of fungal growth), C. albicans [2]: >250 µg/mL
